The text below walks through data of US6495537B1, “Method for inhibition of photocarcinogenesis or photoimmunosuppression using niacin” (University of Kentucky Research Foundation, priority 1998, dated 2002).

One data set concerns UV-induced skin tumors. Conditions: for number of tumors per mouse: 26.5 weeks after first UV treatment, basal diet 0.72; for skin tumor incidence: UV-irradiated mice, 26.5 weeks after first UV exposure, unsupplemented 68%. The procedure: Six-week-old specific-pathogen-free female BALB/cAnNTacfBR (H-2^d) mice were purchased from Taconic Laboratory Animals (Germantown, N.Y.) and quarantined from two weeks before treatment. Animals were housed in microisolators under barrier conditions with a 12:12-hour light-dark cycle at 20+/−2° C. (SD).
(§1) Groups of 25 mice each received the basal diet which consisted of the American Institute of Nutrition 76A rodent diet containing 10% corn oil and 30 mg niacin per kilogram diet, supplemented with 0, 0.1, 0.5, or 1.0% niacin (Dyets Inc. Bethlehem, Pa.). All diets were pelleted (Dyets Inc.) without heat or steam and stored under refrigeration for less than 10 weeks. Animals were fed ad libitum and given fresh diet three times per week for three weeks before UV treatments began, and throughout the study. Niacin intakes were calculated from the diet consumed. Animals were supplied with sterilized water ad libitum.
(§2) The mice were exposed to UV radiation after three weeks of oral niacin administration. The animals were shaved dorsally with animal clippers each week. The filter tops, food, and water bottles were removed from the microisolators while mice were exposed to UV radiation emitted by banks of six FS40 Westinghouse fluorescent sun lamps for 30 min per day, five days per week. This UV regimen continued for 22 weeks in the carcinogenesis experiments, and for 11 weeks in the passive transfer assay experiments. The cages were systemically rotated during the study to compensate for any differences in flux at different positions under the lamps. The FS40 lamps emit a continuous spectrum from 270 to 390 nm with peak emission at 313 nm. About 75% of the energy output is in the wavelength range of 280-340 nm with about 23% in the 340-390 nm range. The total UVB radiation dose was approximately 1.41×10^6 Jm^−2 in the carcinogenesis experiments, and about […] in the passive transfer experiments, as measured with a UVX Digital Radiometer with a UVX-31 sensor (Ultraviolet Products, San Gabriel, Calif.).
(§3) Differences in primary tumor incidence between the experimental groups were analyzed by the Wilcoxon rank sum test. […] For the NAD assay, the Q test was first applied to the data to determine whether questionable values should be rejected. This test was conducted at the 95% confidence level. The data were then analyzed using the MIXED procedure in the statistical analysis program SAS 6.11. […] In this manner, it was possible to first account for differences and variability in duplicate or triplicate samples from the same mouse before the differences between each mouse in each group was compared. This procedure resulting in more precise group means than if each single value carried equal weight. Least-squares means for each group were calculated, and a multiple comparison between these means was made after applying a Tukey-Kramer adjustment for the p-values.
Groups of 25 mice each were fed the AIN76A rodent diet containing 10% corn oil and 30 mg niacin per kilogram diet, supplemented with 0, 0.1, 0.5, or 1.0% niacin. After three weeks of this diet, dorsally shaved mice were exposed to UV radiation for 30 min per day, five days per week for 22 weeks.

The test system of another data set is skin NAD. How it is done:
as §3

The next data set has as its system UVM12 tumor cells. Conditions: 32 days after tumor challenge, 0% niacin 91.6, unirradiated control 21.9. How it is done:
as §2, §3

The conditions of data set [1]: for Body Weight: mean; for Food Consumed: mean (SD). How it is done:
as §1
Niacin ingestion was calculated from diet consumption recorded on 50% of the animals of each group.

The mark [2] stands for this setting: diet supplemented with 0.1% niacin.

Like-named read-outs stand apart in the source and are kept apart here.

Regarding `O=C(O)c1cccnc1` [niacin], the results for the “number of tumors per mouse” value in the data set on UV-induced skin tumors (setting [2]), in the data set with UV-induced skin tumors (diet supplemented with 0.5% niacin) and with UV-induced skin tumors (diet supplemented with 1.0% niacin) were 0.6%, 0.48% and 0.4%, respectively. For the same compound, the skin tumor incidence with UV-induced skin tumors (setting [2]) was 60%; in the data set on UV-induced skin tumors (diet supplemented with 0.5% niacin, p=0.0257), 48%; in the data set with UV-induced skin tumors (diet supplemented with 1.0% niacin, p=0.0257) it was 28%. In addition, the “skin NAD content vs UV-irradiated mice receiving no additional niacin” value with skin NAD (0.5% niacin supplementation, p<0.0001 dorsal skin, p=0.0114 ventral skin) was “significantly higher skin NAD content”; in the data set on skin NAD (1.0% niacin supplementation, p=0.0025 dorsal skin, p=0.0017 ventral skin), “significantly higher skin NAD content”. Moreover, the mean tumor size is given as 79.8(+/−11.5) sq mm in the data set with UVM12 tumor cells (recipients of splenocytes from UVB-irradiated donors on 0.1% niacin), 41.9 (+/−11.7) sq mm in the data set with UVM12 tumor cells (recipients of splenocytes from UVB-irradiated donors on 0.5% niacin) and 13.2(+/−4.1) sq mm in the data set on UVM12 tumor cells (recipients of splenocytes from UVB-irradiated donors on 1.0% niacin). The “body weights of UV-irradiated mice, with or without supplemental niacin” value in data set [1] (0.1, 0.5 or 1.0% niacin diets vs basal diet) is “similar”. Besides, the “Body Weight” value in data set [1] (+UV +0.1% niacin diet) was found to be 18.2 grams; in data set [1] (+UV +0.5% niacin diet), 18.07 grams; in data set [1] (+UV +1% niacin diet), 18.55 grams. The “Food Consumed” value in data set [1] (+UV +0.1% niacin diet) is on record as 2.47 (0.54) g/mouse/day; in data set [1] (+UV +0.5% niacin diet), 2.77 (0.66) g/mouse/day; in data set [1] (+UV +1% niacin diet), 2.88 (0.60) g/mouse/day.
